Where “and” joins values, the source holds several entries; their conditions need not be identical. Equal entries are not always repeated. A value given as a limit tells only on which side of the number the result lay.

This experiment deals with 454973-116-R2-J3-PDC spheroids, viability, % test/control. Kind of experiment: Anticancer human tumor 454973-116-R2-J3-PDC patient-derived pancreatic carcinoma cell line growth inhibition [GQUAD]. As to conditions: spheroids with HUVEC and MSC; for viability, T/C: stronger effect = lower value. The method in brief: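 Multi-cell-type spheroids of tumor cells with HUVEC and mesenchymal stem cells, treated with drug combinations. Concentrations descend in half-log steps from near clinical Cmax, or from 10 microM where Cmax is unknown; viability read-out.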

Where [1] appears, read: curve of first compound, second compound 0.0316 µM.
The mark [2] stands for this setting: curve of first compound, second compound 0.1 µM.
Where [3] appears, read: curve of first compound, second compound 0.316 µM.
The mark [4] stands for this setting: curve of first compound, second compound 1 µM.
[5] abbreviates: curve of first compound, second compound 3.16 µM.
The mark [6] stands for this setting: curve of first compound, second compound 10 µM.
Setting [7] is: second compound 0.0316 µM, first compound 0.0316 µM.
Where [8] appears, read: second compound 0.0316 µM, first compound 0.316 µM.
Where [9] appears, read: second compound 0.1 µM, first compound 0.0316 µM.
[10] abbreviates: second compound 0.1 µM, first compound 0.316 µM.
The mark [11] stands for this setting: second compound 0.316 µM, first compound 0.0316 µM.
Setting [12] is: second compound 0.316 µM, first compound 0.316 µM.
Where [13] appears, read: second compound 1 µM, first compound 0.0316 µM.
Setting [14] is: second compound 1 µM, first compound 0.316 µM.
Where [15] appears, read: second compound 3.16 µM, first compound 0.0316 µM.
Where [16] appears, read: second compound 3.16 µM, first compound 0.316 µM.
Setting [17] is: second compound 10 µM, first compound 0.0316 µM.
Setting [18] is: second compound 10 µM, first compound 0.316 µM.
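Also: spheroids exposed to compounds for seven days.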
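For viability, T/C in this document: 100% = DMSO vehicle control viability.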

`CC[C@@]1(O)C(=O)OCc2c1cc1n(c2=O)Cc2cc3c(CN(C)C)c(O)ccc3nc2-1` + Cc1[nH]c2ccc(F)cc2c1-c1nc2c3cccnc3c3ncccc3c2[nH]1: the IC50 was 52.7 nM under setting [1]; 47.8 nM under setting [2]; 45.4 nM under setting [3]; 44.3 nM under setting [4]; 52.3 nM under setting [5]; 37.9 nM under setting [6]. For the same compound, the viability, T/C was 97.3% (second compound 0.0316 µM, first compound 0.000999 µM); 95.9% (second compound 0.0316 µM, first compound 0.00316 µM); 94.7% (second compound 0.0316 µM, first compound 0.00999 µM); 69.2% under setting [7]; 25% (second compound 0.0316 µM, first compound 0.0999 µM); 26.9% under setting [8]. The viability, T/C (second compound 0.1 µM, first compound 0.000999 µM) is 114%; the viability, T/C (second compound 0.1 µM, first compound 0.00316 µM) was 93.7%; the viability, T/C (second compound 0.1 µM, first compound 0.00999 µM) was 102%; the viability, T/C under setting [9] is 66%; the viability, T/C (second compound 0.1 µM, first compound 0.0999 µM) was 20.8%; the viability, T/C under setting [10] was 21.8%. The viability, T/C is 102% (second compound 0.316 µM, first compound 0.000999 µM); 119% (second compound 0.316 µM, first compound 0.00316 µM); 92.7% (second compound 0.316 µM, first compound 0.00999 µM); 65% under setting [11]; 19.7% (second compound 0.316 µM, first compound 0.0999 µM); 20.7% under setting [12]. For the same compound, the viability, T/C was 103% (second compound 1 µM, first compound 0.000999 µM); 99.3% (second compound 1 µM, first compound 0.00316 µM); 94.6% (second compound 1 µM, first compound 0.00999 µM); 62.4% under setting [13]; 19.6% (second compound 1 µM, first compound 0.0999 µM); 20.7% under setting [14]. Moreover, the viability, T/C was 97.7% (second compound 3.16 µM, first compound 0.000999 µM); 101% (second compound 3.16 µM, first compound 0.00316 µM); 85% (second compound 3.16 µM, first compound 0.00999 µM); 70.9% under setting [15]; 20.8% (second compound 3.16 µM, first compound 0.0999 µM); 25.2% under setting [16]. The viability, T/C is, setting by setting: (second compound 10 µM, first compound 0.000999 µM) 100%; (second compound 10 µM, first compound 0.00316 µM) 83.9%; (second compound 10 µM, first compound 0.00999 µM) 82.3%; under setting [17], 56.7%; (second compound 10 µM, first compound 0.0999 µM) 23.2%; under setting [18], 23%.

For the compound `Cc1cccc(N(C)C(=O)C2C(O)CCN2c2nc(C)cc(C(F)(F)F)c2C#N)c1` (configuration not stated), the viability, T/C runs as follows: (compound 0.0316 µM) 93.2% and 106% and 100%; (compound 0.1 µM) 98.7% and 101% and 97.4%; (compound 0.316 µM) 105% and 106% (2×); (compound 1 µM) 102% and 93.6% and 108%; (compound 3.16 µM) 110% and 108% and 113%; (compound 10 µM) 107% (2×) and 101%. Moreover, the IC50 (curve of compound) is > 10000 nM.

`C=CC(=O)N1CCN(c2nc(=O)n(-c3c(C)ccnc3C(C)C)c3nc(-c4c(O)cccc4F)c(F)cc23)C(C)C1` (configuration not stated): the viability, T/C runs as follows: (compound 0.0316 µM) 105% and 109% and 98.9%; (compound 0.1 µM) 108% and 100% and 98.3%; (compound 0.316 µM) 108% and 105% and 116%; (compound 1 µM) 111% and 116% and 110%; (compound 3.16 µM) 111% and 110% and 115%; (compound 10 µM) 115% and 108% and 109%. For the same compound, the IC50 (curve of compound) is > 10000 nM.

For the compound `CC(C)(O)C1CCC(Nc2ccc3ncc(-c4cccc(C(F)(F)F)c4)n3n2)CC1` (configuration not stated), the viability, T/C is 105% and 109% and 106% (compound 0.0316 µM); 99.6% and 101% and 93.8% (compound 0.1 µM); 98.4% and 95.2% and 111% (compound 0.316 µM); 77.4% and 76.5% and 90.4% (compound 1 µM); 30.5% and 26.7% and 22.5% (compound 3.16 µM); 35% and 28.9% and 29.6% (compound 10 µM). Moreover, the IC50 (curve of compound) is 2030 nM and 1880 nM and 2060 nM.

Regarding `O=C(NO)c1cnc(N2CCN(S(=O)(=O)c3ccc4ccccc4c3)CC2)nc1` + Cc1cnc(CNC(=O)c2c(=O)c3ccc(N4CCCN(C)CC4)nc3n3c2sc2ccccc23)cn1, the IC50 is, setting by setting: under setting [1], 198 nM; under setting [2], 163 nM; under setting [3], 144 nM; under setting [4], 140 nM; under setting [5], 130 nM; under setting [6], < 31.6 nM. Further, the viability, T/C is, setting by setting: under setting [7], 105%; (second compound 0.0316 µM, first compound 0.1 µM) 81.9%; under setting [8], 28.5%; (second compound 0.0316 µM, first compound 1 µM) 1.33%; (second compound 0.0316 µM, first compound 3.16 µM) 0.09%; (second compound 0.0316 µM, first compound 10 µM) 0.11%. For the same compound, the viability, T/C by setting is: under setting [9], 87.1%; (second compound 0.1 µM, first compound 0.1 µM) 68.6%; under setting [10], 24.8%; (second compound 0.1 µM, first compound 1 µM) 1.02%; (second compound 0.1 µM, first compound 3.16 µM) 0.59%; (second compound 0.1 µM, first compound 10 µM) 0.1%. Also, the viability, T/C is, setting by setting: under setting [11], 67.4%; (second compound 0.316 µM, first compound 0.1 µM) 61.9%; under setting [12], 23.6%; (second compound 0.316 µM, first compound 1 µM) 0.34%; (second compound 0.316 µM, first compound 3.16 µM) 0.11%; (second compound 0.316 µM, first compound 10 µM) 0.12%. Besides, the viability, T/C by setting is: under setting [13], 59.5%; (second compound 1 µM, first compound 0.1 µM) 64.1%; under setting [14], 21.8%; (second compound 1 µM, first compound 1 µM) 0.41%; (second compound 1 µM, first compound 3.16 µM) 0.09%; (second compound 1 µM, first compound 10 µM) 0.13%. Moreover, the viability, T/C reads like this: under setting [15], 67.9%; (second compound 3.16 µM, first compound 0.1 µM) 60.9%; under setting [16], 13.3%; (second compound 3.16 µM, first compound 1 µM) 0.48%; (second compound 3.16 µM, first compound 3.16 µM) 0.95%; (second compound 3.16 µM, first compound 10 µM) 0.53%. The viability, T/C is, setting by setting: under setting [17], 0.19%; (second compound 10 µM, first compound 0.1 µM) 21.1%; under setting [18], 0.26%; (second compound 10 µM, first compound 1 µM) 0.2%; (second compound 10 µM, first compound 3.16 µM) 0.19%; (second compound 10 µM, first compound 10 µM) 0.19%.

Regarding `O=c1[nH]cc(F)c(=O)[nH]1`, the viability, T/C is, setting by setting: (compound 0.0316 µM) 111% and 108% and 105%; (compound 0.1 µM) 93.5% and 97.6% and 87.4%; (compound 0.316 µM) 105% and 95.1% and 107%; (compound 1 µM) 76% and 70.2% and 86.5%; (compound 3.16 µM) 32.9% and 34.6% and 35.7%; (compound 10 µM) 46.3% and 42.6% and 32.9%. Moreover, the IC50 (curve of compound) was 2270 nM and 2110 nM and 2280 nM.

The term IC50 denotes the concentration needed to halve the response being measured. As usually defined, the viability, T/C is the result in the treated group divided by that in the control group, in per cent.

These data come from PubChem BioAssay AID2060508 (Molecular Pharmacology Branch, DTP, NCI, 2025).
